Where no end group is shown, it is not given here.
Experiments:
[1] = system: delayed-type hypersensitivity (DTH); assay: Restoration of delayed-type hypersensitivity (DTH) decreased by 5-FU in BDF1 mice; type: in vivo; conditions: i.p.; for DTH response %: % of control
Experimental: A poor prognosis is often observed in cancer patients with impaired immune response. Impaired immune response can be caused by the cancer itself, by chemotherapeutic agents, or by radiotherapy. Thus, therapeutic agents which restore impaired immune response in cancer patients are expected to play an important role in combination therapy. The restoration activity of the compounds of the invention on impaired cell-mediated immunity was determined by measuring the enhancement of delayed-type hypersensitivity (DTH), which was decreased to a great extent in mice treated with 5-fluorouracil (5-FU).
Female BDF1 mice (20-22 g, 11-12 weeks old) received (i.p. or p.o.) the compound to be tested on consecutive days one day before, concurrently with and 1 and 2 days after the 5-FU treatment. For DTH measurement, 10^8 chicken red blood cells (CRBC) were injected i.p. (or s.c. into the left hind footpad) and challenged s.c. into the right hind footpad at 3 and 7 days after the 5-FU treatment, respectively. Restoration activity was calculated by the following formula from the DTH response observed in the control group, 5-FU treated group treatment and the Test group treated both with 5-FU and the compound of the invention. Restoration activity was calculated by the formula: [formula]

[2] = system: Candida albicans ATCC 10231; assay: Protective activity against Candida albicans infection in 5-FU immunosuppressed mice; type: in vivo; conditions: for Survivors Day 8 / Survivors Day 15: ddY mice; for Survivors at Day 8 after infection: Table 6, i.p., ten times with 5-FU, control 1/7
Experimental: In a series of examples, the compounds of formula I were tested for protective activity against opportunistic infections in immunosuppressed mice. Female ddY mice (6 weeks old) weighing about 26 g were pretreated daily for ten days with 5-fluorouracil (5-FU) (25 mg/kg/day, i.p.) and with thymosin α1 or with compounds of formula I (i.p.) at varying dosages. The mice were then infected with Candida albicans ATCC 10231 (1×10^5 cells or more) at 24 hour after the last treatment. One control group was administered 5-FU and saline solution and a second control group received neither 5-FU nor compound of formula I prior to infection with Candida albicans. The number of animals surviving eight days after infection with Candida albicans and 15 days after infection with Candida albicans is presented in the table below.
Normal mice (female ddY mice, 6 weeks old) were highly tolerant to infection with Candida albicans ATCC 10231 at relatively low dose (1-2×10^5 cells, iv.). However, when pretreated daily for ten times with 5-FU (25 mg/kg/day, ip.), the mice were susceptible to infection as shown in Table 6. […] Compound A was also shown to be active against infection with Pseudomonas aeruginosa 5E81-1 and Listeria monocytogenes EGD in the immunosuppressed mice (see Tables 7 and 8).

[3] = Table 3, first experiment, 5-FU plus 0.05 μg/kg/day
[4] = Table 3, first experiment, 5-FU plus 0.5 μg/kg/day
[5] = Table 3, first experiment, 5-FU plus 5.0 μg/kg/day
[6] = Table 3, second experiment, 5-FU plus 0.5 μg/kg/day
[7] = Table 3, second experiment, 5-FU plus 5.0 μg/kg/day
[8] = Table 3, second experiment, 5-FU plus 50.0 μg/kg/day
[9] = Example 8, 4.0 μg/kg i.p. daily for ten days with 5-FU
[10] = Example 8, 40.0 μg/kg i.p. daily for ten days with 5-FU

## KSEVVE [Compound B, L-Lysyl-L-seryl-L-glutamyl-L-valyl-L-valyl-L-glutamic acid]
[1]; Table 3, first experiment (control 8.5, 5-FU alone 4.8), 5-FU plus 0.05 μg/kg/day
  DTH response av. ± S.E. (0.1 mm): 7.2 ± 0.8 0.1 mm
[1]; Table 3, first experiment (control 8.5, 5-FU alone 4.8), 5-FU plus 0.5 μg/kg/day
  DTH response av. ± S.E. (0.1 mm): 6.5 ± 0.7 0.1 mm
[1]; Table 3, first experiment (control 8.5, 5-FU alone 4.8), 5-FU plus 5.0 μg/kg/day
  DTH response av. ± S.E. (0.1 mm): 8.5 ± 1.0 0.1 mm
[1]; [3]
  Restoration Activity(%): 65.0%
  DTH response %: 84.7%
[1]; [4]
  Restoration Activity(%): 48.0%
  DTH response %: 77.2%
[1]; [5]
  Restoration Activity(%): 100%
  DTH response %: 100%
[1]; Table 3, second experiment (control 15.1, 5-FU alone 8.1), 5-FU plus 0.5 μg/kg/day
  DTH response av. ± S.E. (0.1 mm): 8.5 ± 0.9 0.1 mm
[1]; Table 3, second experiment (control 15.1, 5-FU alone 8.1), 5-FU plus 5.0 μg/kg/day
  DTH response av. ± S.E. (0.1 mm): 8.3 ± 1.8 0.1 mm
[1]; Table 3, second experiment (control 15.1, 5-FU alone 8.1), 5-FU plus 50.0 μg/kg/day
  DTH response av. ± S.E. (0.1 mm): 9.4 ± 0.8 0.1 mm
[1]; [6]
  Restoration Activity(%): 6.5%
  DTH response %: 56.4%
[1]; [7]
  Restoration Activity(%): 3.1%
  DTH response %: 54.8%
[1]; [8]
  Restoration Activity(%): 18.3%
  DTH response %: 61.9%
[1]; Tables 2 and 3
  DTH restoration activity (in words): active
[2]; [9]
  Survivors Day 8: 6/7
  Survivors Day 15: 3/7
[2]; [10]
  Survivors Day 8: 3/7
  Survivors Day 15: 3/7
[2]; Example 9, 4.0 μg/kg i.p. daily for ten days with 5-FU
  Survivors Day 8: 5/7
[2]; Example 9, 40.0 μg/kg i.p. daily for ten days with 5-FU
  Survivors Day 8: 5/7
[2]; 4 μg/kg/day
  Survivors at Day 8 after infection: 5/7
[2]; 40 μg/kg/day
  Survivors at Day 8 after infection: 5/7
